Test results published in ChEMBL document CHEMBL4359901, “Cyclic enaminone as new chemotype for selective cyclooxygenase-2 inhibitory, anti-inflammatory, and analgesic activities” (Eur J Med Chem, 2019).
Blank lines part the entries; values can stand above or below the compound they belong to.

How the values were obtained:
[1] = biological target: Prostaglandin G/H synthase 2 (Homo sapiens) (UniProt P35354); experiment: Inhibition of recombinant human COX2 assessed as reduction in PGF2alpha at 10 uM incubated for 2 mins using arachidonic acid as substrate by ELISA relative to control
[2] = biological target: Prostaglandin G/H synthase 1 (Ovis aries) (UniProt P05979); experiment: Inhibition of ovine COX1 assessed as reduction in PGF2alpha at 10 uM incubated for 2 mins using arachidonic acid as substrate by ELISA relative to control
[3] = tested on: Rattus norvegicus; experiment: Antiinflammatory activity in Wistar albino rat assessed as reduction in carrageenan-induced paw volume at 12.5 mg/kg, ip measured after 3 hrs by plethysmometric method (reference value: 1.75 +/- 0.33 ml); format: functional
[4] = tested on: Rattus norvegicus; experiment: Analgesic activity in Wistar albino rat assessed as reaction time at 12.5 mg/kg, ip measured after 60 mins for 15 secs by hot plate method (reference value: 4.67 +/- 0.52 sec); format: functional
[5] = tested on: Rattus norvegicus; experiment: Analgesic activity in Wistar albino rat assessed as reaction time at 25 mg/kg, ip measured after 60 mins for 15 secs by hot plate method (reference value: 4.67 +/- 0.52 sec); format: functional
[6] = Selectivity index, ratio of IC50 for inhibition of ovine COX1 to IC50 for inhibition of recombinant human COX2
[7] = tested on: Rattus norvegicus; experiment: Antiinflammatory activity in Wistar albino rat assessed as reduction in carrageenan-induced paw edema at 25 mg/kg, ip measured after 2 hrs by plethysmometric method (reference value: 1.58 +/- 0.21 ml); format: functional
[8] = tested on: Rattus norvegicus; experiment: Analgesic activity in Wistar albino rat assessed as reaction time at 12.5 mg/kg, ip measured after 30 mins for 15 secs by hot plate method (reference value: 4.21 +/- 0.41 sec); format: functional
[9] = tested on: Rattus norvegicus; experiment: Antiinflammatory activity in Wistar albino rat assessed as reduction in carrageenan-induced paw edema at 25 mg/kg, ip measured after 3 hrs by plethysmometric method (reference value: 1.75 +/- 0.33 ml); format: functional
[10] = tested on: Rattus norvegicus; experiment: Antiinflammatory activity in Wistar albino rat assessed as reduction in carrageenan-induced paw volume at 12.5 mg/kg, ip measured after 1 hr by plethysmometric method (reference value: 1.43 +/- 0.19 ml); format: functional
[11] = tested on: Rattus norvegicus; experiment: Analgesic activity in Wistar albino rat assessed as reaction time at 25 mg/kg, ip measured after 120 mins for 15 secs by hot plate method (reference value: 4.32 +/- 0.52 sec); format: functional
[12] = Antioxidant activity assessed as DPPH radical scavenging activity incubated for 20 mins by spectrophotometric method; format: functional
[13] = tested on: Rattus norvegicus; experiment: Antiinflammatory activity in Wistar albino rat assessed as reduction in carrageenan-induced paw volume at 12.5 mg/kg, ip measured after 2 hrs by plethysmometric method (reference value: 1.58 +/- 0.21 ml); format: functional
[14] = Antioxidant activity assessed as DPPH radical scavenging activity at 100 uM/ml incubated for 20 mins by spectrophotometric method relative to control; format: functional
[15] = tested on: Rattus norvegicus; experiment: Analgesic activity in Wistar albino rat assessed as reaction time at 25 mg/kg, ip measured after 180 mins for 15 secs by hot plate method (reference value: 3.87 +/- 0.38 sec); format: functional
[16] = Antioxidant activity assessed as DPPH radical scavenging activity at 40 uM/ml incubated for 20 mins by spectrophotometric method relative to control; format: functional
[17] = Antioxidant activity assessed as DPPH radical scavenging activity at 20 uM/ml incubated for 20 mins by spectrophotometric method relative to control; format: functional
[18] = tested on: Rattus norvegicus; experiment: Analgesic activity in Wistar albino rat assessed as reaction time at 12.5 mg/kg, ip measured after 120 mins for 15 secs by hot plate method (reference value: 4.32 +/- 0.52 sec); format: functional
[19] = Antioxidant activity assessed as DPPH radical scavenging activity at 60 uM/ml incubated for 20 mins by spectrophotometric method relative to control; format: functional
[20] = tested on: Rattus norvegicus; experiment: Analgesic activity in Wistar albino rat assessed as reaction time at 25 mg/kg, ip measured after 30 mins for 15 secs by hot plate method (reference value: 4.21 +/- 0.41 sec); format: functional
[21] = Antioxidant activity assessed as DPPH radical scavenging activity at 10 uM/ml incubated for 20 mins by spectrophotometric method relative to control; format: functional
[22] = tested on: Rattus norvegicus; experiment: Antiinflammatory activity in Wistar albino rat assessed as reduction in carrageenan-induced paw edema at 25 mg/kg, ip measured after 1 hr by plethysmometric method (reference value: 1.43 +/- 0.19 ml); format: functional
[23] = tested on: Rattus norvegicus; experiment: Analgesic activity in Wistar albino rat assessed as reaction time at 12.5 mg/kg, ip measured after 180 mins for 15 secs by hot plate method (reference value: 3.87 +/- 0.38 sec); format: functional
[24] = Antioxidant activity assessed as DPPH radical scavenging activity at 80 uM/ml incubated for 20 mins by spectrophotometric method relative to control; format: functional

Structure (SMILES): O=C1C=C(Nc2ccccc2)CCC1
inhibition [1]: 41.9% | inhibition [2]: 19.7%

Structure (SMILES): CC1(C)CC(=O)C=C(Nc2ccc(Cl)cc2)C1
inhibition [1]: 42.6% | inhibition [2]: 16.4%

Structure (SMILES): O=C1C=C(Nc2ccc(Cl)cc2)CCC1
Activity [3]: 1.23 mL | Time [4]: 7.09 s | Time [5]: 7.72 s | inhibition [1]: 88.6% | Ratio IC50 [6]: 74.1 | Activity [7]: 1.24 mL | Time [8]: 5.34 s | inhibition [2]: 12.9% | Activity [9]: 1.19 mL | Activity [10]: 1.23 mL | Time [11]: 8.83 s | IC50 [12]: 71.2 µM | Activity [13]: 1.22 mL | Activity [14]: 78.2% | Time [15]: 8.2 s | Activity [16]: 33.7% | Activity [17]: 24% | Time [18]: 7.16 s | Activity [19]: 46.7% | Time [20]: 5.48 s | Activity [21]: 12.7% | Activity [22]: 1.29 mL | Time [23]: 7.24 s | Activity [24]: 61.3%

Structure (SMILES): O=C1C=C(Nc2cc(Cl)ccc2F)CCC1
inhibition [1]: 47.4% | inhibition [2]: 32%

Structure (SMILES): O=C1O[C@H]([C@@H](O)CO)C(O)=C1O [ASCORBIC ACID]
IC50 [12]: < 20 µM | Activity [16]: 74.7% | Activity [17]: 50.8% | Activity [19]: 91.1% | Activity [21]: 27.1% | Activity [24]: 100%

Structure (SMILES): CC(=O)c1ccc(NC2=CC(=O)CCC2)cc1
inhibition [1]: 41.9% | inhibition [2]: 65.5%

Structure (SMILES): O=C1C=C(N2CCCC2)CCC1
inhibition [1]: 45.6% | inhibition [2]: 12.5%

Second part, the compound after the results:

inhibition [1]: 47.1% | inhibition [2]: 46.5%
Structure (SMILES): N#Cc1ccc(NC2=CC(=O)CCC2)cc1

inhibition [1]: 22.2% | inhibition [2]: 43.5%
Structure (SMILES): O=C1C=C(Nc2ccc(F)cc2)CC1

inhibition [1]: 44.5% | inhibition [2]: 34%
Structure (SMILES): CC1(C)CC(=O)C=C(Nc2ccc(F)cc2)C1

inhibition [1]: 55.6% | inhibition [2]: 14.3%
Structure (SMILES): O=C1C=C(Nc2ccc(F)cc2)CCC1

inhibition [1]: 24.2% | inhibition [2]: 31%
Structure (SMILES): O=C1C=C(Nc2ccc([N+](=O)[O-])cc2)CCC1

inhibition [1]: 33.5% | inhibition [2]: 23.7%
Structure (SMILES): O=C1C=C(Nc2ccc(Cl)cc2)CC1
